Source: patent US20150307543A1, “POLYMORPH” (ONCOLOGY RESEARCH INTERNATIONAL LIMITED, priority 2012, published 2015)

What was measured:
Format in all cases: physicochemical
[1] = Dynamic vapour sorption (DVS) at 25° C.; settings: 0% to 95% RH; for total moisture uptake (percent change in mass based on dry mass): first cycle
Description: A comparative study of the dynamic vapour sorption (DVS) of the 3 solid forms of compound one were carried out. The 3 materials tested were (1) compound I hydrate, (2) the polymorphic form of compound I of the invention and (3) the polymorphic form of compound I isolated from methanol. The samples were analysed on a DVS automated moisture sorption instrument at 25° C. with sample sizes of 25-52 mg for the analysis. The samples were initially dried for 300 minutes under a continuous flow of air to establish the dry mass. The samples were then exposed to the following typical partial pressure profile: 0% to 90% RH in 10% steps and then followed by a 5% step to 95%. The partial pressure was then decreased in a similar manner.
Typical net percent change in mass (based on dry mass) versus time plots for the first cycle at 25° C. for the three samples are shown in FIGS. 7, 9 and 11. […] The line plotted on the left y-axis, indicates the percentage change in mass referenced to the dry mass (after initial drying stage), m0, as a function of time. The other line, plotted on the right y-axis, traces the requested % partial pressure of water vapour in the DVS as a function of time.
The isotherm plots display the percent change in mass (referenced from the dry mass, m0) versus the requested relative humidity.
For all the RH steps, the instrument was run in a dm/dt mode (mass variation over time variation). A fixed dm/dt value of 0.002% min-1 was selected. This criterion permits the DVS software to automatically determine when equilibrium has been reached and complete a relative humidity step. When the rate of change of mass falls below this threshold over a determined period of time, the humidity will proceed to the next programmed level. A maximum stage time of 360 minutes and a minimum stage time of 10 minutes were selected for this experiment.

[2] = Bulk density and tap density; settings: for Weight of 5.0 cm^3 of Solid: untapped; for Tapped density: after tapping 50 times; for Bulk density: calculated from weight of 5.0 cm^3 of solid; for Volume after tapped 50 times: starting volume 5.0 cm^3, tapped 50 times
Description: A comparative study of the bulk density and the tapped density of the 3 solid forms of compound one were carried out. The 3 materials tested were (1) compound I hydrate, (2) the polymorphic form of compound I of the invention and (3) the polymorphic form of compound I isolated from methanol. The tests indicated the weight of material in 5.0 cm^3 of solid (g) to calculate the bulk density. This was then tapped 50 times and the tapped density calculated.

[3] = Dissolution analysis in ethanol (% transmission until complete dissolution); settings: set amount in ethanol with stirring, until % transmission reached 100%, FIG. 6
Description: In order to test the solubility of the polymorphs produced in examples 1 and 2 a set amount of the material was added to ethanol with stirring and the % transmission of the mixture thus monitored until the % transmission reached 100% (which indicated complete dissolution). The 3 materials tested were (1) compound I hydrate, (2) the polymorphic form of compound I of the invention and (3) the polymorphic form of compound I isolated from methanol. The results of this experiment were detailed in FIG. 6. […] In contrast the dissolution profile of the polymorphic form of the invention is much slower taking almost 8 times as long to reach full dissolution.

[4] = listed as polymorphic form of the invention

CC1O[C@@H](OC2C(O)[C@H](O)C(CO)O[C@H]2O[C@H]2CC[C@@]3(C)C(=CC[C@H]4[C@@H]5C[C@@H]6O[C@]7(CC[C@@H](C)CO7)[C@@H](C)[C@@H]6[C@@]5(C)CC[C@@H]43)C2)C(O)C(O)[C@H]1O (stereo partly drawn) [Form 2, diosgenyl α-L-rhamnopyranosyl-(1->2)-β-D-glucopyranoside]
total moisture uptake (percent change in mass based on dry mass) [1, 4]: about 0.55% | percentage of water uptake (in words) [1, 4]: low | Weight of 5.0 cm^3 of Solid ([2]; listed as 2): 1.489 g | Tapped density ([2]; listed as 2): 0.41 g/mL | Bulk density ([2]; listed as 2): 0.30 g/mL | Volume after tapped 50 times ([2]; listed as 2): 3.6 cm^3 | time to reach full dissolution, relative to the other forms [3]: ~8 times as long | dissolution rate / dissolution profile (in words) [3, 4]: much slower

CC1O[C@@H](OC2C(O)[C@H](O)C(CO)O[C@H]2O[C@H]2CC[C@@]3(C)C(=CC[C@H]4[C@@H]5C[C@@H]6O[C@]7(CC[C@@H](C)CO7)[C@@H](C)[C@@H]6[C@@]5(C)CC[C@@H]43)C2)C(O)C(O)[C@H]1O (stereo partly drawn) [Form 1, diosgenyl α-L-rhamnopyranosyl-(1->2)-β-D-glucopyranoside]
total moisture uptake (percent change in mass based on dry mass) ([1]; listed as anhydrate): about 5.2% | percentage of water uptake (in words) ([1]; listed as hydrate): relatively high | Weight of 5.0 cm^3 of Solid ([2]; listed as 1): 1.430 g | Tapped density ([2]; listed as 1): 0.37 g/mL | Bulk density ([2]; listed as 1): 0.29 g/mL | Volume after tapped 50 times ([2]; listed as 1): 3.9 cm^3 | dissolution rate / dissolution profile (in words) ([3]; listed as hydrate): fastest

CC1O[C@@H](OC2C(O)[C@H](O)C(CO)O[C@H]2O[C@H]2CC[C@@]3(C)C(=CC[C@H]4[C@@H]5C[C@@H]6O[C@]7(CC[C@@H](C)CO7)[C@@H](C)[C@@H]6[C@@]5(C)CC[C@@H]43)C2)C(O)C(O)[C@H]1O (stereo partly drawn) [Form 3, diosgenyl α-L-rhamnopyranosyl-(1->2)-β-D-glucopyranoside]
total moisture uptake (percent change in mass based on dry mass) ([1]; listed as polymorph from methanol): about 2.5% | percentage of water uptake (in words) ([1]; listed as polymorph obtained from methanol): relatively high | Weight of 5.0 cm^3 of Solid ([2]; listed as 3): 0.847 g | Tapped density ([2]; listed as 3): 0.26 g/mL | Bulk density ([2]; listed as 3): 0.17 g/mL | Volume after tapped 50 times ([2]; listed as 3): 3.2 cm^3 | dissolution rate / dissolution profile (in words) ([3]; listed as polymorphic form isolated from methanol): very rapid
